These results are taken from patent KR20130112248A, “피라졸로피리미딘 유도체 화합물, 이를 포함하는 산화질소 생성 억제용 조성물 및 뇌신경 질환 예방 및 치료용 약학적 조성물” (한국과학기술연구원, priority 2012, dated 2013).

For one experiment, the system named is NO production in BV-2 cells [NO 생성; BV-2 세포]. The experiment in a line: Nitric oxide (NO) quantification (nitrite, Griess reaction) in LPS-activated BV-2 cells. To be noted: 20 μM, LPS 0.2 ㎍/mL, 24 h co-treatment, nitrite by Griess at 540 nm. The experiment is classed as cell-based. In general terms: Griess reagent forms a coloured azo dye with nitrite.
As to “N-(2-메톡시벤질)-6-(메틸설포닐)-1-페닐-1H-피라졸로[3,4-d]피리미딘-4-아민 [화합물 23d]”, the “NO (% of LPS)” value was 35±7.4 % of LPS. Still for that read-out and setting: the value for “N-(2-클로로벤질)-6-(메틸설파이닐)-1-페닐-1H-피라졸로[3,4-d]피리미딘-4-아민 [화합물 22f]” was 58±3.7 % of LPS.

The experiment is the same for the next values; noted with them: 20 μM, LPS 0.2 ㎍/mL, 24 h co-treatment, nitrite by Griess at 540 nm, 1440 min.
For `CC(Nc1nc([S+](C)[O-])nc2c1cnn2Cc1ccccc1)c1ccccc1` (stereo not shown) [화합물 22i, 1-벤질-6-(메틸설파이닐)-N-(1-페닐에틸)-1H-피라졸로[3,4-d]피리미딘-4-아민], the “NO (% of LPS)” value is on record as 81±7.5 % of LPS. The same measure, in the same setting: the value for `CSc1nc(N[C@H](C)c2ccccc2)c2cnn(C(C)(C)C)c2n1` [화합물 17g, (R)-1-t-뷰틸-4-(1-페닐에틸)아미노-6-(메틸티오)피라졸로[3,4-d]피리미딘] was 42±18 % of LPS; that for `CC(Nc1nc(S(C)(=O)=O)nc2c1cnn2Cc1ccccc1)c1ccccc1` (single isomer, unassigned) [화합물 23q, 1-벤질-6-(메틸설포닐)-N-(1-페닐에틸)-1H-피라졸로[3,4-d]피리미딘-4-아민] was 122±2.8 % of LPS.

Staying with this experiment, now noted: Mus musculus, BV-2, 24 h, 20 μM, LPS 0.2 ㎍/mL, 24 h co-treatment, nitrite by Griess at 540 nm.
For the molecule `CSc1nc(NCc2ccccc2Cl)c2cn[nH]c2n1` [6w, N-(2-클로로벤질)-6-(메틸티오)-1H-피라졸로[3,4-d]피리미딘-4-아민], the activity at 20 µM turned out to be 46 ± 2.9%. As for `COc1ccccc1CNc1nc([S+](C)[O-])nc2c1cnn2-c1ccc(F)cc1` (stereo not shown) [화합물 22e, N-(2-메톡시벤질)-1-(4-플루오로페닐)-6-(메틸설파이닐)-1-페닐-1H-피라졸로[3,4-d]피리미딘-4-아민], the activity at 20 µM was determined as 31 ± 6.9%. The same measure, in the same setting: the value for `CCCCNc1nc(SC)nc2c1cnn2C(C)(C)C` [화합물 17l, 1-t-뷰틸-N-뷰틸-6-(메틸티오)-1H-피라졸로[3,4-d]피리미딘-4-아민] was 82 ± 9.5%; that for `CSc1nc(NCc2ccccc2)c2c(-c3ccccc3)nn(Cc3ccccc3)c2n1` [32a, 1-벤질-3-페닐-4-벤질아미노-6-(메틸티오)피라졸로[3,4-d]피리미딘] was 53 ± 3%; that for `COc1ccc(CNc2nc(SC)nc3c2cnn3Cc2ccccc2)cc1` [화합물 16g, 1-벤질-4-(4-메톡시벤질)아미노-6-(메틸티오)피라졸로[3,4-d]피리미딘] was 37 ± 6%. On to `C=CCn1ncc2c(NCc3ccc(Cl)cc3)nc(SC)nc21` [화합물 13f, N-(4-클로로벤질)-1-알릴-6-(메틸티오)-1H-피라졸로[3,4-d]피리미딘-4-아민], for which the activity at 20 µM is 11 ± 2.9%.

Take `CSc1nc(N(CCO)CCO)c2cnn(Cc3ccccc3)c2n1` [화합물 16i, 1-벤질-4-비스(1-하이드록시에틸)아미노-6-(메틸티오)피라졸로[3,4-d]피리미딘]: the activity at 20 µM was 79 ± 3%.

`COc1cccc(CNc2nc(SC)nc3c2cnn3CCc2ccccc2OC)c1` [화합물 19a, 1-(2-메톡시펜에틸)-N-(3-메톡시벤질)-6-(메틸티오)-1H-피라졸로[3,4-d]피리미딘-4-아민]: the activity at 20 µM worked out at 32 ± 1.1%. With `COc1ccc(CNc2nc(SC)nc3c2cnn3CCO)cc1` [화합물 27e, 1-(1-하이드록시에틸)-4-(4-메톡시벤질)아미노-6-(메틸티오)피라졸로[3,4-d]피리미딘], the activity at 20 µM was 56 ± 6%. On the same count and under the same terms, for `CSc1nc(NCCN2CCCCC2)c2cn[nH]c2n1` [6g, 4-(2-피페리딘-1-일)에틸아미노-6-(메틸티오)피라졸로[3,4-d]피리미딘] the value was 102 ± 6%; for `CSc1nc(Cl)c2cnn(CCNC(=O)OC(C)(C)C)c2n1` [5d, 1-[N-t-Boc-(2-아미노에틸)]-4-클로로-6-(m메틸티오)피라졸로[3,4-d]피리미딘], 48 ± 4%; for `CCCCCCCCSc1nc(SC)nc2c1cnn2Cc1ccccc1` [화합물 16v, 1-벤질-6-(메틸티오)-4-(옥틸티오)-1H-피라졸로[3,4-d]피리미딘], 95 ± 4%. Turning to `CSc1nc(NCc2ccccn2)c2cnn(C(C)(C)C)c2n1` [화합물 17m, 1-t-뷰틸-6-(메틸티오)-N-((피리딘-2-일)메틸)-1H-피라졸로[3,4-d]피리미딘-4-아민], the activity at 20 µM was 92 ± 6.6%.

For the molecule `CS(=O)(=O)c1nc(NC(c2ccccc2)c2ccc(Cl)cc2)c2cnn(-c3ccccc3)c2n1` (stereo not shown) [화합물 23e, N-((4-클로로페닐)(페닐)메틸)-6-(메틸설포닐)-1-페닐-1H-피라졸로[3,4-d]피리미딘-4-아민], the activity at 20 µM was 36 ± 3.6%. Still for that read-out and setting: for `COc1ccccc1CNc1nc(SC)nc2c1cnn2-c1ccc(C)cc1` [화합물 21b, N-(2-메톡시벤질)-6-(메틸티오)-1-p-톨릴-1H-피라졸로[3,4-d]피리미딘-4-아민] the value was 44 ± 25.2%; for `CSc1nc(NCCc2ccccc2)c2cnn(-c3ccccc3)c2n1` [화합물 15b, 1-페닐-4-(2-페닐에틸)아미노-6-(메틸티오)피라졸로[3,4-d]피리미딘], 72 ± 8%; for `COc1cccc(CCn2ncc3c(NCc4ccccc4OC)nc(SC)nc32)c1` [화합물 18b, N-(2-메톡시벤질)-1-(3-메톡시펜에틸)-6-(메틸티오)-1H-피라졸로[3,4-d]피리미딘-4-아민], 37 ± 17.6%.

Regarding `COc1ccccc1CNc1nc(SC)nc2c1cnn2-c1ccccc1` [화합물 15v, 1-페닐-4-(2-메톡시벤질)아미노-6-(메틸티오)피라졸로[3,4-d]피리미딘], the activity at 20 µM came out at 41 ± 2%.

Turning to `CSc1nc(NCc2ccc(F)cc2)c2cn[nH]c2n1` [6d, 4-(4-플루오로벤질)아미노-6-(메틸티오)피라졸로[3,4-d]피리미딘], the activity at 20 µM was 84 ± 8%. On the same count and under the same terms, for `CSc1nc(NCc2ccc(C)cc2)c2cnn(Cc3ccccc3)c2n1` [화합물 16ze, N-(4-메틸벤질)-1-벤질-6-(메틸티오)-1H-피라졸로[3,4-d]피리미딘-4-아민] the value was 51 ± 3.4%; for `C=CCNc1nc(SC)nc2[nH]ncc12` [6b, 4-알릴아미노-6-(메틸티오)피라졸로[3,4-d]피리미딘], 100 ± 4%. Still for that read-out and setting: for `C=CCn1ncc2c(NCc3ccccc3)nc(SC)nc21` [화합물 13a, 1-알릴-4-벤질아미노-6-(메틸티오)피라졸로[3,4-d]피리미딘] the value was 15 ± 25%; for `CSc1nc(NCc2ccc(Cl)cc2)c2cnn(CCNC(=O)OC(C)(C)C)c2n1` [화합물 14e, 2-(4-(4-클로로벤질아미노)-6-(메틸티오)-1H-피라졸로[3,4-d]피리미딘-1-일)에틸카바메이트], 26.8 ± 0.1%. Still for that read-out and setting: for `CSc1nc(NCc2ccccc2)c2cnn(CCO)c2n1` [화합물 27a, 1-(1-하이드록시에틸)-4-벤질아미노-6-(메틸티오)피라졸로[3,4-d]피리미딘] the value was 77 ± 5%; for `C=CCNc1nc(SC)nc2c1cnn2Cc1ccccc1` [화합물 16h, 1-벤질-4-알릴아미노-6-(메틸티오)피라졸로[3,4-d]피리미딘], 66 ± 9%. Regarding `CSc1nc(NCc2ccccc2C)c2cnn(-c3ccc(C)cc3)c2n1` [화합물 21c, N-(2-메틸벤질)-6-(메틸티오)-1-p-톨릴-1H-피라졸로[3,4-d]피리미딘-4-아민], the activity at 20 µM turned out to be 47 ± 6.8%. On the same count and under the same terms, for `C=CCn1ncc2c(NC(C)c3ccccc3)nc(SC)nc21` (stereo not shown) [화합물 13i, 1-알릴-6-(메틸티오)-N-(1-페닐에틸)-1H-피라졸로[3,4-d]피리미딘-4-아민] the value was 9.5 ± 3.8%; for `CSc1nc(NCc2ccccc2)c2cnn(Cc3ccccc3)c2n1` [화합물 16a, 1-벤질-4-벤질아미노-6-(메틸티오)피라졸로[3,4-d]피리미딘], 35 ± 0.5%; for `COCCNc1nc(NC(C)c2ccccc2)c2cnn(Cc3ccccc3)c2n1` (stereo not shown) [화합물 24h, 1-벤질-N6-(2-메톡시에틸)-N4-(1-페닐에틸)-1H-피라졸로[3,4-d]피리미딘-4,6-디아민], 44 ± 4.2%. With `C=CCn1ncc2c(NCc3ccccc3OC)nc(SC)nc21` [화합물 13e, N-(2-메톡시벤질)-1-알릴-6-(메틸티오)-1H-피라졸로[3,4-d]피리미딘-4-아민], the activity at 20 µM amounted to 22.4 ± 0.4%. The same measure, in the same setting: the value for `CSc1nc(Sc2ccc(C)cc2)c2cnn(-c3ccccc3)c2n1` [화합물 15y, 4-(p-톨릴티오)-6-(메틸티오)-1-페닐-1H-피라졸로[3,4-d]피리미딘] was 85 ± 2.3%; that for `CSc1nc(NC2CCCCC2)c2cnn(-c3ccccc3)c2n1` [화합물 15q, 1-페닐-4-사이클로헥실아미노-6-(메틸티오)피라졸로[3,4-d]피리미딘] was 54 ± 1%. Still for that read-out and setting: for `COc1ccc(CNc2nc(SC)nc3c2cnn3C)cc1` [12h, 1-메틸-4-(4-메톡시벤질)아미노-6-(메틸티오)피라졸로[3,4-d]피리미딘] the value was 33 ± 10%; for `CSc1nc(NCc2ccc(Cl)cc2)c2cn[nH]c2n1` [6p, 4-(4-클로로벤질)아미노-6-(메틸티오)피라졸로[3,4-d]피리미딘], 50 ± 23%. Take `CSc1nc(Cl)c2c(-c3ccccc3)nn(-c3ccccc3)c2n1` [화합물 30a, 1-페닐-3-페닐-4-클로로-6-(메틸티오)피라졸로[3,4-d]피리미딘]: the activity at 20 µM amounted to 13 ± 18%.

Consider `CSc1nc(Cl)c2c(-c3ccccc3)nn(Cc3ccccc3)c2n1` [화합물 30b, 1-벤질-3-페닐-4-클로로-6-(메틸티오)피라졸로[3,4-d]피리미딘], for which the activity at 20 µM came out at 31 ± 19%. `COc1cccc(CNc2nc(SC)nc3c2cnn3Cc2ccccc2)c1` [화합물 16zf, N-(3-메톡시벤질)-1-벤질-6-(메틸티오)-1H-피라졸로[3,4-d]피리미딘-4-아민]: the activity at 20 µM worked out at 49 ± 0.6%. Still for that read-out and setting: for `CSc1nc(NCc2ccccc2C)c2cn[nH]c2n1` [6r, 4-(2-메틸벤질)아미노-6-(메틸티오)피라졸로[3,4-d]피리미딘] the value was 64 ± 3%; for `COc1cccc(CNc2nc(SC)nc3c2cnn3CCO)c1` [화합물 27d, 1-(1-하이드록시에틸)-4-(3-메톡시벤질)아미노-6-(메틸티오)피라졸로[3,4-d]피리미딘], 49 ± 12%; for `Cc1ccc(-n2ncc3c(NCc4ccccc4C)nc(S(C)(=O)=O)nc32)cc1` [화합물 23n, N-(2-메틸벤질)-1-(4-메틸페닐)-6-(메틸설포닐)-1-p-톨릴-1H-피라졸로[3,4-d]피리미딘-4-아민], 82 ± 3.1%. As for `CC(Nc1nc(N(C)C)nc2c1cnn2Cc1ccccc1)c1ccccc1` (stereo not shown) [화합물 24g, 1-벤질-N6,N6-디메틸-N4-(1-페닐에틸)-1H-피라졸로[3,4-d]피리미딘-4,6-디아민], the activity at 20 µM came to 63 ± 2.6%. Consider `CSc1nc(N[C@H](C)c2ccccc2)c2cn[nH]c2n1` [6k, (R)-4-(1-페닐에틸)아미노-6-(메틸티오)피라졸로[3,4-d]피리미딘], for which the activity at 20 µM is 16 ± 17%. Still for that read-out and setting: the value for `CSc1nc(NCc2ccccc2Cl)c2cnn(-c3ccc(F)cc3)c2n1` [화합물 20a, N-(2-클로로벤질)-1-(4-플루오로페닐)-6-(메틸티오)-1H-피라졸로[3,4-d]피리미딘-4-아민] was 48 ± 17.2%; that for `COc1cccc(CCn2ncc3c(NCc4ccc(F)cc4)nc(SC)nc32)c1` [화합물 18g, 1-(3-메톡시펜에틸)-N-(4-플루오로벤질)-6-(메틸티오)-1H-피라졸로[3,4-d]피리미딘-4-아민] was 58 ± 4.8%. On the same count and under the same terms, the value for `CS(=O)(=O)c1nc(NCc2ccccc2Cl)c2cnn(-c3ccc(F)cc3)c2n1` [화합물 23j, N-(2-클로로벤질)-1-(4-플루오로페닐)-6-(메틸설포닐)-1H-피라졸로[3,4-d]피리미딘-4-아민] was 28 ± 19.3%; that for `C=CCn1ncc2c(NCCCC)nc(SC)nc21` [화합물 13l, 1-알릴-N-뷰틸-6-(메틸티오)-1H-피라졸로[3,4-d]피리미딘-4-아민] was 43.3 ± 1.1%.

Staying with this experiment, now noted: Mus musculus, BV-2, 24 h, 30 μM, LPS 0.2 ㎍/mL, 24 h co-treatment, nitrite by Griess at 540 nm.
In the case of `CSc1nc(NCCO)c2c(I)n[nH]c2n1` [11b, 3-아이오도-4-(1-하이드록시에틸)아미노-6-(메틸티오)피라졸로[3,4-d]피리미딘], the activity at 30 µM is 82 ± 7%.
